Laboratory results: patent US7645763B2, “8-[3-amino-piperidin-1-yl]-xanthines, their preparation and their use as pharmaceutical composition” (Boehringer Ingelheim Pharma GmbH & Co. KG, priority 2004, dated 2010)
Each block holds one compound with its values, some of them ahead of it.

Experiments:
DPP-IV = biological target: T1, DPP-IV (Homo sapiens, UniProt P27487); test: DPP-IV assay with Caco-2 cell extract as DPP IV source; format: biochemical; conditions: extract of human colon carcinoma cell line Caco-2 as DPP IV source; AFC substrate 100 μM; 60 minutes at ambient temperature; 11-point curves; read-out: DPP IV inhibition IC50
T1 construct: an extract of the human colon carcinoma cell line Caco-2 is used as the DPP IV source; endogenous in cells; host or cells: Caco-2 (human colon carcinoma), differentiated to induce DPP-IV expression; Nonidet-P40 solubilized extract
T1 sequence (P27487 whole entry): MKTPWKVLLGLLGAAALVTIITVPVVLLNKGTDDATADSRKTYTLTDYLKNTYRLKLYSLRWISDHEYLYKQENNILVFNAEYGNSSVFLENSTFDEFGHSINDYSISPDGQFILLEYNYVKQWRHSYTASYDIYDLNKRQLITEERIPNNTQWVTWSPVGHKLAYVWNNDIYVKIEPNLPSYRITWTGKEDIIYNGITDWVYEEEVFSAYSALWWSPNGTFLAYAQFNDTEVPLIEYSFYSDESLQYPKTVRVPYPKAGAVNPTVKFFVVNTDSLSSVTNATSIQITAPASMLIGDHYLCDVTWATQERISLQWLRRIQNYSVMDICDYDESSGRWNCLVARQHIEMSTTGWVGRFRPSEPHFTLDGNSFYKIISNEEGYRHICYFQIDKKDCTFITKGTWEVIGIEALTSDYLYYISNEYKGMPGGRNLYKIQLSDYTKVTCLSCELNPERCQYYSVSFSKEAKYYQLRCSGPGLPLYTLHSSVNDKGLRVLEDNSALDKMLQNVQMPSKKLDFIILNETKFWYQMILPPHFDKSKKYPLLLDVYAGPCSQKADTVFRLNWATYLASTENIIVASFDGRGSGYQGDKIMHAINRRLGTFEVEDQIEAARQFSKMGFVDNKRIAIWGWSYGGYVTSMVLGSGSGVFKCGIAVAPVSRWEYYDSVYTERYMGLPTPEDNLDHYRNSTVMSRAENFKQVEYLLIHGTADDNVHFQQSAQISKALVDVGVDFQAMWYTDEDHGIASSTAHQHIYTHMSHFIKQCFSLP
Procedure: The differentiation of the cells in order to induce the DPP-IV expression was carried out in accordance with the description by Reiher et al. in an article entitled “Increased expression of intestinal cell line Caco-2” that appeared in Proc. Natl. Acad. Sci. Vol. 90, pp. 5757-5761 (1993). The cell extract was obtained from cells solubilized in a buffer (10 mM Tris HCl, 0.15 M NaCl, 0.04 t.i.u. aprotinin, 0.5% Nonidet-P40, pH 8.0) by centrifugation at 35,000 g for 30 minutes at 4° C. (to remove cell debris).
The DPP-IV assay was carried out as follows:
50 μl of substrate solution (AFC; AFC is amido-4-trifluoromethylcoumarin), final concentration 100 μM, was placed in black microtitre plates. 20 μl of assay buffer (final concentrations 50 mM Tris HCl pH 7.8, 50 mM NaCl, 1% DMSO) was pipetted therein. The reaction was started by the addition of 30 μl of solubilized Caco-2 protein (final concentration 0.14 μg of protein per well). The test substances under investigation were typically added prediluted to 20 μl, while the volume of assay buffer was then reduced accordingly. The reaction was carried out at ambient temperature, the incubation period was 60 minutes. Then the fluorescence was measured in a Victor 1420 Multilabel Counter, with the excitation wavelength at 405 nm and the emission wavelength at 535 nm. Dummy values (corresponding to 0% activity) were obtained in mixtures with no Caco-2 protein (volume replaced by assay buffer), control values (corresponding to 100% activity) were obtained in mixtures without any added substance. The potency of the test substances in question, expressed as IC50 values, were calculated from dosage/activity curves consisting of 11 measured points in each case.

[1] = Tolerability in rats after oral administration; format: in vivo; conditions: oral administration of 10 mg/kg

Compound: CC#CCn1c(N2CCC[C@@H](N)C2)nc2c1c(=O)n(CC(=O)c1cccc3oc(=O)n(C)c13)c(=O)n2C1CC1 [Example 1, 1-[2-(3-Methyl-2-oxo-2,3-dihydro-benzoxazol-4-yl)-2-oxo-ethyl]-3-cyclopropyl-7-(2-butyn-1-yl)-8-((R)-3-amino-piperidin-1-yl)-xanthine]
IC50 (DPP-IV): 3.6 nM

Compound: CC#CCn1c(N2CCC[C@@H](N)C2)nc2c1c(=O)n(Cc1ccc3ncccc3n1)c(=O)n2-c1ccccc1 [1(13), 1-[([1,5]naphthyridin-2-yl)methyl]-3-phenyl-7-(2-butyn-1-yl)-8-((R)-3-amino-piperidin-1-yl)-xanthine]
IC50 (DPP-IV): 4 nM

Compound: CC#CCn1c(N2CCC[C@@H](N)C2)nc2c1c(=O)n(Cc1nc(C)c3ccccc3n1)c(=O)n2-c1ccccc1 [Example 1(8), 1-[(4-methyl-quinazolin-2-yl)methyl]-3-phenyl-7-(2-butyn-1-yl)-8-((R)-3-amino-piperidin-1-yl)-xanthine]
IC50 (DPP-IV): 4.9 nM
toxic side effects / tolerability [1]: no toxic side effects could be detected

Continued by falling IC50 (DPP-IV), values first:

IC50 (DPP-IV): 8.1 nM
Compound: CC#CCn1c(N2CCC[C@@H](N)C2)nc2c1c(=O)n(CC(=O)c1cccc(OC)c1)c(=O)n2-c1ccccc1 [1(10), 1-[2-(3-methoxy-phenyl)-2-oxo-ethyl]-3-phenyl-7-(2-butyn-1-yl)-8-((R)-3-amino-piperidin-1-yl)-xanthine]

IC50 (DPP-IV): 2.7 nM
Compound: CC#CCn1c(N2CCC[C@@H](N)C2)nc2c1c(=O)n(Cc1nc(C)c3ccccc3n1)c(=O)n2C1CC1 [1(1), 1-[(4-methyl-quinazolin-2-yl)methyl]-3-cyclopropyl-7-(2-butyn-1-yl)-8-((R)-3-amino-piperidin-1-yl)-xanthine]
